From ChEMBL document CHEMBL1255204, “Identification of the first non-peptidic small molecule inhibitor of the c-Abl/14-3-3 protein-protein interactions able to drive sensitive and Imatinib-resistant leukemia cells to apoptosis” (2010)
The source made the active and inactive calls. No cut-off for these calls is given here.

What was measured:
[1] = Cytotoxicity against mouse BA/F3 cells; type: functional; details: BaF3, read-out: LD50 (the source's name)
[2] = biological target: Tyrosine-protein kinase ABL1 (Mus musculus) (UniProt P00520); experiment: Induction of translocation of cAbl in to mitochondria of mouse BA/F3 cells; details: BaF3
[3] = biological target: Bcr/Abl fusion protein (Homo sapiens) (UniProt P00519+P11274); experiment: Binding affinity to Bcr-Abl expressed in mouse BA/F3 cells at 5 uM; type: cell-based; details: BaF3
[4] = biological target: Tyrosine-protein kinase ABL1 (Mus musculus) (UniProt P00520); experiment: Induction of translocation of cAbl in to mitochondria of mouse BA/F3 cells assessed as caspase 8 cleavage; details: BaF3
[5] = biological target: Tyrosine-protein kinase ABL1 (Mus musculus) (UniProt P00520); experiment: Induction of nuclear translocation of cAbl of mouse BA/F3 cells; type: cell-based; details: BaF3
[6] = biological target: Tyrosine-protein kinase ABL1 (Mus musculus) (UniProt P00520); experiment: Induction of translocation of cAbl in to mitochondria of mouse BA/F3 cells assessed as caspase9 cleavage; details: BaF3
[7] = Cytotoxicity against mouse BA/F3 cells overexpressing BCR-Abl T315I mutant; type: functional; details: BaF3, read-out: LD50 (the source's name)

Sequence of Tyrosine-protein kinase ABL1 (Mus musculus) (P00520 whole entry, the tested form may be a part): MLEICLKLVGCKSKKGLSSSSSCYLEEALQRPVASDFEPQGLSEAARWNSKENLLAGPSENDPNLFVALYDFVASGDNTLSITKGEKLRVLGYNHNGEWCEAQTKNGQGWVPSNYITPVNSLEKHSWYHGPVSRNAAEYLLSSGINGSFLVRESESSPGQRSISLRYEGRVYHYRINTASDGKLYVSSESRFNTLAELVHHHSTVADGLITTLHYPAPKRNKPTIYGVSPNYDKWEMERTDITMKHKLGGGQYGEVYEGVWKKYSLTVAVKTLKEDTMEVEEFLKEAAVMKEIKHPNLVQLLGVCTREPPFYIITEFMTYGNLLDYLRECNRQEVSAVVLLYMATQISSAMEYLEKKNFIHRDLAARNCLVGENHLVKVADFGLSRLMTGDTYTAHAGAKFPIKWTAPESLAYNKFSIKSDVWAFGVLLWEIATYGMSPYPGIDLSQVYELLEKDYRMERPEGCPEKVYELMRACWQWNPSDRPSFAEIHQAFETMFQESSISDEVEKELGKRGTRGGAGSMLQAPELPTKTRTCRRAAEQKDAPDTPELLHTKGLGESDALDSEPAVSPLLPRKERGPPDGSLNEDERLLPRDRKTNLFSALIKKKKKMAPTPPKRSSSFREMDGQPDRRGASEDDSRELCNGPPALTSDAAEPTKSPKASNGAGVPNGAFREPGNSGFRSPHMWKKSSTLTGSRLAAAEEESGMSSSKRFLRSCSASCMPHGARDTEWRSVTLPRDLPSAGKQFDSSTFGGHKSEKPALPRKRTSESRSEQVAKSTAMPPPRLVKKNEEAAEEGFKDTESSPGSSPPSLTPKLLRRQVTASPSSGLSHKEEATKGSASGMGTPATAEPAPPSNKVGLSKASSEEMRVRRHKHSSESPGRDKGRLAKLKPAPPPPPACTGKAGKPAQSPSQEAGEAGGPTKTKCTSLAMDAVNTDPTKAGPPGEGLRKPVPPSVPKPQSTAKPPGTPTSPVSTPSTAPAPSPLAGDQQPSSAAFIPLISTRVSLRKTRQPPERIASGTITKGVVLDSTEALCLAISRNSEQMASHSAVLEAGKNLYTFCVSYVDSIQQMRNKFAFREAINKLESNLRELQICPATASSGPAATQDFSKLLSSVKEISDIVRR
Sequence of Bcr/Abl fusion protein (Homo sapiens) (P00519 whole entry, looked up, the tested form may be a part): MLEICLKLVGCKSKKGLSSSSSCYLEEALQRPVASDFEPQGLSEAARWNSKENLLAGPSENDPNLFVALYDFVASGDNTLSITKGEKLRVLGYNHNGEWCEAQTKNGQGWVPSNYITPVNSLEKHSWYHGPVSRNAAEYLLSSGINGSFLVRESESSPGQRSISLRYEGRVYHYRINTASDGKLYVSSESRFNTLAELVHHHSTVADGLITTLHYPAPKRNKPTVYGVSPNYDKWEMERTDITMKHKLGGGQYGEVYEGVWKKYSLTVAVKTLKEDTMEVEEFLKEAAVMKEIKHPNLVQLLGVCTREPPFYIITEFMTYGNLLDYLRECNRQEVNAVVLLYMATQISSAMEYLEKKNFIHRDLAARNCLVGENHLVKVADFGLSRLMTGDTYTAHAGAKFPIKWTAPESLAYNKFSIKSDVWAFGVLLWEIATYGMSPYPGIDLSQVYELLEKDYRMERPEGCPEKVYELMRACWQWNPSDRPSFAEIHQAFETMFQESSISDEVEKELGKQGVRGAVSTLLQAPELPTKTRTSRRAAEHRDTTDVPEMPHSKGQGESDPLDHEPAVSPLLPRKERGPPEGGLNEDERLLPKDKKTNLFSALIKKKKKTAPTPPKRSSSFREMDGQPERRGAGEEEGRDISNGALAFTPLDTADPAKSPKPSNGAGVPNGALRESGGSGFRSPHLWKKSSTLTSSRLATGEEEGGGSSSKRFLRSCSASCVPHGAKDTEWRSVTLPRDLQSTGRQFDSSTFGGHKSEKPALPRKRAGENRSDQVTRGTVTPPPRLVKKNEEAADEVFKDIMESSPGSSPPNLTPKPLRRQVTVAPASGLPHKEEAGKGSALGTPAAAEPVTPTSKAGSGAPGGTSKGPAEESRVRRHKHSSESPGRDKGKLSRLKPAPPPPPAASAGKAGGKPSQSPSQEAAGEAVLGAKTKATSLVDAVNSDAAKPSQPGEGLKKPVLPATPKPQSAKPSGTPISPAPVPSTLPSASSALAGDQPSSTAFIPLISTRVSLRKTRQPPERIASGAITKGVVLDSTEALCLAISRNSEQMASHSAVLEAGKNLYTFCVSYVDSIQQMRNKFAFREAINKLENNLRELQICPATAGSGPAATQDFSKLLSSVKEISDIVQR
Sequence of Bcr/Abl fusion protein (Homo sapiens) (P11274 whole entry, looked up, the tested form may be a part): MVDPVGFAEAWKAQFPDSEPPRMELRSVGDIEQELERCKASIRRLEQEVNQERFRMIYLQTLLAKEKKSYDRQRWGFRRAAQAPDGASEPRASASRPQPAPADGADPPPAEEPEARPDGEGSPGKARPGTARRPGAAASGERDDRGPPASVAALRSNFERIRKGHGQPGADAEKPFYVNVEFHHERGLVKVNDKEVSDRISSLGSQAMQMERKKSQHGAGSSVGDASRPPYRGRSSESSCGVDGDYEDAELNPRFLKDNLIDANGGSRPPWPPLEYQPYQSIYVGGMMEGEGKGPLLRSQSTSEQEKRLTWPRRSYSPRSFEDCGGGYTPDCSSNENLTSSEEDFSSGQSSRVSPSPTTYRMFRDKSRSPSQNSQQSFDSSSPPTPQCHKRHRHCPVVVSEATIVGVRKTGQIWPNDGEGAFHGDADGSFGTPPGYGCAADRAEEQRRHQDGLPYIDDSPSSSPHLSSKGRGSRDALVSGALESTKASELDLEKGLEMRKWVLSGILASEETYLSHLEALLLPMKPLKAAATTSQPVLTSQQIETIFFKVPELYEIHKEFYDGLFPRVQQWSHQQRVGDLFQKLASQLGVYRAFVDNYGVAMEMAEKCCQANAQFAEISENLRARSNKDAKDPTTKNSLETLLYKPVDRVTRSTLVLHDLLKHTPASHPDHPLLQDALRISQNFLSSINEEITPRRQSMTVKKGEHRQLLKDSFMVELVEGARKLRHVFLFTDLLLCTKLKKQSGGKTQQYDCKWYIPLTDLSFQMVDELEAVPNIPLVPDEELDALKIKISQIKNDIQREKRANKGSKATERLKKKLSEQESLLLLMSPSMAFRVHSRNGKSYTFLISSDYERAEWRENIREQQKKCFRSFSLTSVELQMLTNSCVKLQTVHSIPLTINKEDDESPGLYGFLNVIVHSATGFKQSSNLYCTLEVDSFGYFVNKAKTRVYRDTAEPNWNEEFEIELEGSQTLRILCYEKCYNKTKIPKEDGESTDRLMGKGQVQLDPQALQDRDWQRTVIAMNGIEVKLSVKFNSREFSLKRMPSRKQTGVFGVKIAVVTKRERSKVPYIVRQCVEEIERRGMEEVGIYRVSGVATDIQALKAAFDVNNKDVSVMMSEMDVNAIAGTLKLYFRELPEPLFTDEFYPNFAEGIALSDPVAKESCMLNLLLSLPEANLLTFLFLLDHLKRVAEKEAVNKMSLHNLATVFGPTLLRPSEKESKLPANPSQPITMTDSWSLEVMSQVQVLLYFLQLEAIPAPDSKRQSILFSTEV

SMILES: Cc1c(NC(=O)c2c(C(=O)O)cccc2C(=O)O)c(=O)n(-c2ccccc2)n1C
- CC50 [1]: 1040 nM
- Activity [2]: Active
- Activity [3]: Active
- Activity [4]: Active
- Activity [5]: Active
- Activity [6]: Active
- CC50 [7]: 1470 nM
